Values quoted from earlier work as cited in US20100158905A1, “COMBINATION THERAPY OF ARTHRITIS WITH TRANILAST” (NUON THERAPEUTICS, INC., priority 2008, published 2010).

Assays:
RA = conditions: used in combination with methotrexate
rheumatoid arthritis = conditions: usual maintenance dose

| Compound | improvements in treating RA (RA) | Approximate time to benefit (rheumatoid arthritis) |
| --- | --- | --- |
| Adalimumab | marked improvements | – |
| CCN(CCO)CCCC(C)Nc1ccnc2cc(Cl)ccc12 (stereo not shown) [Hydroxychloroquine] | – | 2-6 months |
| Cc1oncc1C(=O)Nc1ccc(C(F)(F)F)cc1 [Leflunomide] | – | 4-12 weeks (skewed earlier) |
| O=C(O)c1cc(/N=N/c2ccc(S(=O)(=O)Nc3ccccn3)cc2)ccc1O [Sulfasalazine] | – | 1-3 months |
| Cn1cnc([N+](=O)[O-])c1Sc1ncnc2nc[nH]c12 [Azathioprine] | – | 2-3 months |
| Etanercept | marked improvements | A few days to 12 weeks |
| CN(Cc1cnc2nc(N)nc(N)c2n1)c1ccc(C(=O)N[C@@H](CCC(=O)O)C(=O)O)cc1 [Methotrexate] | – | 1-2 months |
| CC(C)(S)[C@@H](N)C(=O)O [D-penicillamine] | – | 3-6 months |
| infliximab: tumor necrosis factor (TNF) antagonist | marked improvements | – |
